Measured values reported in patent publication US20160046618A1, “Cyclopropyl Fused Thiazin-2-Amine Compounds as Beta-Secretase Inhibitors and Methods of Use” (AMGEN INC., priority 2014, published 2016).
Where two headings read alike, the source gives them in different places.

Tests used:
[1] = system: Aβ40 in conditioned medium of cells stably expressing Amyloid Precursor Protein (APP); test: In vitro BACE-1 cell-based assay (Aβ40 sandwich ELISA); settings: read-out: IC50 IP (μM) BACE1 cell
Outline: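 Read-out: time-resolved fluorescence (Streptavidin-Europium) of Aβ40 captured by pAb40 and detected with biotinylated 6E10 from supernatants of APP-stable cells. Cells were exposed to compound for 24 h, 10-point dose response, top dose 100 μM or 10 μM, 0.1% DMSO. IC50 fitted to percent of control.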

Recombinant Cat D = Recombinant Cat D (Homo sapiens (Human), UniProt P07339); test: In vitro enzymatic Cathepsin D (Cat D) FRET assay; format: biochemical; settings: read-out: IC50 IP (μM) CatD
Sequence of Recombinant Cat D (P07339 65-412): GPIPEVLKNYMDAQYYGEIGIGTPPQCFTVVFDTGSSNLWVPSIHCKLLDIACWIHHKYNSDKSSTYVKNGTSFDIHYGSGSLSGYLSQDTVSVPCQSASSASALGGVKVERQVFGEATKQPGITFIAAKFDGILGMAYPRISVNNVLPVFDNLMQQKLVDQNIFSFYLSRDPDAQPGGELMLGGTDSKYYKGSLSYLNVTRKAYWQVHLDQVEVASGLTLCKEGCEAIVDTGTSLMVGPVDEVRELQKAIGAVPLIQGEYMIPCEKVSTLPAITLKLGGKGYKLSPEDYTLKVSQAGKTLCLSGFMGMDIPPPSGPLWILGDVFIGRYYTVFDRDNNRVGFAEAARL
Outline: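 Recombinant Cat D expressed in CHO cells, assayed in 0.05 M citrate pH 3.5 with 5 mM CHAPS and 10% DMSO final. Reaction started with 20 nM FRET peptide substrate, incubated one hour, then stopped by Tris buffer to neutral pH; fluorescence read at ex 500/em 580 nm.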

human recombinant BACE1 = human recombinant BACE1 (Homo sapiens (Human), UniProt P56817); test: In vitro enzymatic BACE1 FRET assay; format: biochemical; settings: read-out: IC50 IP (μM) BACE1 enzyme
Sequence of human recombinant BACE1 (P56817 46-501): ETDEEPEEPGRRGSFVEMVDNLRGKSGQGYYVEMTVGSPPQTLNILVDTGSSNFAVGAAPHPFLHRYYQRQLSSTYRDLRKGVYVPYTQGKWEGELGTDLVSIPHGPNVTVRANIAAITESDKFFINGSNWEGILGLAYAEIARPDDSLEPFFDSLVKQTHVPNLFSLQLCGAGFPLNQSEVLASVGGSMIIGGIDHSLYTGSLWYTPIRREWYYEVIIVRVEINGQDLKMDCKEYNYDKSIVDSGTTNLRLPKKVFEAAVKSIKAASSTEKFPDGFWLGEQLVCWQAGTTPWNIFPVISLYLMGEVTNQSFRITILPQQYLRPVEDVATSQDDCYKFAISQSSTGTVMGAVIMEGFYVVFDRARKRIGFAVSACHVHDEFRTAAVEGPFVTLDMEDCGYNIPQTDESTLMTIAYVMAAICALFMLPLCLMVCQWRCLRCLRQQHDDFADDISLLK
Outline: (§1)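 Tris addition raises the pH to neutral to stop the reaction before fluorescence is measured at 590 nm emission with 488 nm excitation.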

human recombinant BACE2 = human recombinant BACE2 (Homo sapiens (Human), UniProt Q9Y5Z0); test: In vitro enzymatic BACE2 FRET assay; format: biochemical; settings: read-out: IC50 IP (μM) BACE2 enzyme
Sequence of human recombinant BACE2 (Q9Y5Z0 63-518): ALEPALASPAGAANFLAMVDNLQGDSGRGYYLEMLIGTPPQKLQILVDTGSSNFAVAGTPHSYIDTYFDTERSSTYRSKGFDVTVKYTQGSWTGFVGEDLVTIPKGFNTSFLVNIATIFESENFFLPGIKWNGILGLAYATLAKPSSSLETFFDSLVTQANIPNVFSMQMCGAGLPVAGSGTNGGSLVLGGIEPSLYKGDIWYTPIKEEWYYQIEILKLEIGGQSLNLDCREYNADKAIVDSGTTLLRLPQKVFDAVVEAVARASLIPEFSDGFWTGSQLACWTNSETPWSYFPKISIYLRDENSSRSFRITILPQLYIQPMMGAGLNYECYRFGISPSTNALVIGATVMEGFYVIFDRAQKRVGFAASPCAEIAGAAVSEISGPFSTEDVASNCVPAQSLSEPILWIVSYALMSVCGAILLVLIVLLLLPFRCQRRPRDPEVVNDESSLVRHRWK
Outline: as §1

Row | IC50 ([1]; BACE1 cell-based assay) | IC50 (Recombinant Cat D; Cathepsin D FRET enzyme assay) | IC50 (human recombinant BACE1; BACE1 FRET enzyme assay) | IC50 (human recombinant BACE2; BACE2 FRET enzyme assay) | IC50 [1] | IC50 (Recombinant Cat D) | IC50 (human recombinant BACE1) | IC50 (human recombinant BACE2) | SMILES
1 | 0.114 µM | 939 µM | 0.0152 µM | 0.00302 µM | – | – | – | – | C[C@]1(c2cc(NC(=O)c3ccc(Cl)cn3)ccc2F)N=C(N)S[C@@H]2[C@H]1C2(F)F [Example 69, N-(3-((1R,5S,6R)-3-amino-7,7-difluoro-5-methyl-2-thia-4-azabicyclo[4.1.0]hept-3-en-5-yl)-4-fluorophenyl)-5-chloro-2-pyridinecarboxamide]
2 | – | – | – | – | 0.000667 µM | 126 µM | 0.000266 µM | 0.00448 µM | C#CCOc1cnc(C(=O)Nc2ccc(F)c([C@@]3(C)N=C(N)S[C@@]4(C#N)C[C@H]43)c2)cn1 [Example 927, N-(3-((1S,5S,6S)-3-amino-1-cyano-5-methyl-2-thia-4-azabicyclo[4.1.0]hept-3-en-5-yl)-4-fluorophenyl)-5-(2-propyn-1-yloxy)-2-pyrazinecarboxamide]
3 | – | – | – | – | 0.00338 µM | 601 µM | 0.00048 µM | 0.0174 µM | C[C@]1(c2cc(Nc3nccc4nc(OCc5ncco5)cnc34)cnc2F)N=C(N)S[C@]2(CO)[C@H]1C2(F)F [Example 663, ((1S,5S,6R)-3-amino-7,7-difluoro-5-(2-fluoro-5-((2-(1,3-oxazol-2-ylmethoxy)pyrido[3,4-b]pyrazin-5-yl)amino)-3-pyridinyl)-5-methyl-2-thia-4-azabicyclo[4.1.0]hept-3-en-1-yl)methanol]
4 | – | – | – | – | 0.0119 µM | > 400 µM | 0.00427 µM | 0.13 µM | C[C@]1(c2cc(Nc3nccc4nc(OCc5ncccn5)cnc34)cc(F)c2F)N=C(N)S[C@@]2(C(F)F)C[C@@H]12 [Example 884, N-(3-((1S,5S,6S)-3-amino-1-(difluoromethyl)-5-methyl-2-thia-4-azabicyclo[4.1.0]hept-3-en-5-yl)-4,5-difluorophenyl)-2-(2-pyrimidinylmethoxy)pyrido[3,4-b]pyrazin-5-amine]
5 | – | – | – | – | 0.0148 µM | 1160 µM | 0.00565 µM | 0.00251 µM | Cc1cnnn1C[C@]12C[C@H]1[C@@](CF)(c1cc(NC(=O)c3ccc(Cl)cn3)ccc1F)N=C(N)S2 [Example 725, N-(3-((1S,5S,6S)-3-amino-5-(fluoromethyl)-1-((5-methyl-1H-1,2,3-triazol-1-yl)methyl)-2-thia-4-azabicyclo[4.1.0]hept-3-en-5-yl)-4-fluorophenyl)-5-chloro-2-pyridinecarboxamide]
6 | 0.00156 µM | 329 µM | 0.00047 µM | 0.0375 µM | – | – | – | – | C#CCOc1ccc(C(=O)Nc2cc(F)c(F)c([C@@]3(C)N=C(N)S[C@@]4(CO)C[C@H]43)c2)nc1 [Example 71, N-(3-((1S,5S,6S)-3-amino-1-(hydroxymethyl)-5-methyl-2-thia-4-azabicyclo[4.1.0]hept-3-en-5-yl)-4,5-difluorophenyl)-5-(2-propyn-1-yloxy)-2-pyridinecarboxamide]
7 | – | – | – | – | 0.00192 µM | 1570 µM | 0.000404 µM | 0.0476 µM | CNC(=O)[C@]12C[C@H]1[C@@](C)(c1cc(NC(=O)c3cnc(OCC(F)(F)F)cn3)ccc1F)N=C(N)S2 [Example 973, (1S,5S,6S)-3-amino-5-(2-fluoro-5-(5-(2,2,2-trifluoroethoxy)pyrazine-2-carboxamido)phenyl)-N,5-dimethyl-2-thia-4-azabicyclo[4.1.0]hept-3-ene-1-carboxamide]
8 | – | – | – | – | 0.000733 µM | 86.9 µM | 0.000861 µM | 0.0389 µM | C[C@]1(c2cc(Nc3ncnc4cc(OCc5ncco5)cnc34)cc(F)c2F)N=C(N)S[C@@]2(C(N)=O)C[C@H]21 [Example 918, (1S,5S,6S)-3-amino-5-(2,3-difluoro-5-((7-(1,3-oxazol-2-ylmethoxy)pyrido[3,2-d]pyrimidin-4-yl)amino)phenyl)-5-methyl-2-thia-4-azabicyclo[4.1.0]hept-3-ene-1-carboxamide]
9 | – | – | – | – | 0.0208 µM | > 400 µM | 0.00832 µM | 0.192 µM | COCCOc1cnc2c(Nc3ccc(F)c([C@@]4(CF)N=C(N)S[C@@]5(CF)C[C@H]54)c3)nccc2n1 [Example 635, N-(3-((1S,5S,6S)-3-amino-1,5-bis(fluoromethyl)-2-thia-4-azabicyclo[4.1.0]hept-3-en-5-yl)-4-fluorophenyl)-2-(2-methoxyethoxy)pyrido[3,4-b]pyrazin-5-amine]
10 | – | – | – | – | 0.0012 µM | 316 µM | 0.000846 µM | 0.0397 µM | C#CCOc1cnc2c(Nc3ccc(F)c([C@@]4(C)N=C(N)S[C@@]5(C(=O)NC6CC6)C[C@H]54)c3)nccc2n1 [Example 794, (1S,5S,6S)-3-amino-N-cyclopropyl-5-(2-fluoro-5-((2-(2-propyn-1-yloxy)pyrido[3,4-b]pyrazin-5-yl)amino)phenyl)-5-methyl-2-thia-4-azabicyclo[4.1.0]hept-3-ene-1-carboxamide]
11 | – | – | – | – | 0.0072 µM | 129 µM | 0.000598 µM | 0.017 µM | C#CCOc1cnc(C(=O)Nc2cc(F)c(F)c([C@@]3(C)N=C(N)S[C@@]4(COC)C[C@H]43)c2)c(C)n1 [Example 862, N-(3-((1S,5S,6S)-3-amino-1-(methoxymethyl)-5-methyl-2-thia-4-azabicyclo[4.1.0]hept-3-en-5-yl)-4,5-difluorophenyl)-3-methyl-5-(2-propyn-1-yloxy)-2-pyrazinecarboxamide]
12 | – | – | – | – | 0.00362 µM | 1160 µM | 0.00262 µM | 0.0599 µM | C[C@]1(c2cc(Nc3ncnc4cc(OCc5ncco5)cnc34)cnc2F)N=C(N)S[C@@]2([C@H](O)C(F)(F)F)C[C@H]21 [Example 667, (1R)-1-((1S,5S,6S)-3-amino-5-(2-fluoro-5-((7-(1,3-oxazol-2-ylmethoxy)pyrido[3,2-d]pyrimidin-4-yl)amino)-3-pyridinyl)-5-methyl-2-thia-4-azabicyclo[4.1.0]hept-3-en-1-yl)-2,2,2-trifluoroethanol]
13 | – | – | – | – | 0.00148 µM | 113 µM | 0.000423 µM | < 0.00203 µM | C#CCOc1cnc2c(Nc3ccc(F)c([C@@]4(CF)N=C(N)S[C@@]5(/C=C/C(=O)N6CC(F)(F)C6)C[C@H]54)c3)nccc2n1 [Example 773, N-(3-((1R,5S,6S)-3-amino-1-((1E)-3-(3,3-difluoro-1-azetidinyl)-3-oxo-1-propen-1-yl)-5-(fluoromethyl)-2-thia-4-azabicyclo[4.1.0]hept-3-en-5-yl)-4-fluorophenyl)-2-(2-propyn-1-yloxy)pyrido[3,4-b]pyrazin-5-amine]
14 | – | – | – | – | 0.0132 µM | 380 µM | 0.0141 µM | 0.0355 µM | CC(=O)[C@]12C[C@H]1[C@@](C)(c1cc(Nc3ncnc4cc(C#N)cnc34)cc(F)c1F)N=C(N)S2 [Example 904, 4-((3-((1S,5S,6S)-1-acetyl-3-amino-5-methyl-2-thia-4-azabicyclo[4.1.0]hept-3-en-5-yl)-4,5-difluorophenyl)amino)pyrido[3,2-d]pyrimidine-7-carbonitrile]
15 | – | – | – | – | 0.0738 µM | 194 µM | 0.00181 µM | 0.288 µM | CC(NC(=O)[C@]12C[C@H]1[C@@](C)(c1cc(NC(=O)c3cnc(OCC(F)(F)F)cn3)ccc1F)N=C(N)S2)C(F)F (stereo partly drawn) [Example 1045, (1S,5S,6S)-3-amino-N-(1,1-difluoropropan-2-yl)-5-(2-fluoro-5-(5-(2,2,2-trifluoroethoxy)pyrazine-2-carboxamido)phenyl)-5-methyl-2-thia-4-azabicyclo[4.1.0]hept-3-ene-1-carboxamide]
